Experimental findings from patent publication US20260200923A1, “HETEROCYCLIC COMPOUNDS TARGETING THE NUDT5 PROTEIN” (Oxford University Innovation Limited, priority 2022, published 2026) are described below.

Each structure is given as a SMILES string.

One data set concerns the target NUDT5 (Homo sapiens, UniProt Q9UKK9). Description: NUDT5 degradation by Western blot in HEK293 cells. It is filed as cell-based. On the set-up: endogenous in cells; host or cells: HEK293 (also CRBN knock-out HEK293 for A13). The procedure:
For Western blots, proteins were separated on polyacrylamide gels with SDS running buffer (50 mM Tris, 380 mM Glycine, 7 mM SDS) and transferred to PVDF membranes. All membranes were then blocked with blocking buffer (5% w/v milk powder, BioRad) in TBST (50 mM Tris (tris(hydroxymethylaminomethane), 150 mM NaCl, 0.05% (v/v) Tween 20, adjusted to pH 7.6) Proteins were probed with antibodies against phospho-AMPK (50081S, 1:2000, Cell Signaling Technologies), AMPK (5832S, 1:2000, Cell Signaling Technologies), PML (ab179466, 1:1000, abeam), PARP8 (NBP213733, 1:1000, Novus Biologicals), ATF2/7 (82870, 1:1000, Cell Signaling Technologies), alpha-Tubulin (ab7291, 1:1000, Abeam), phospho-UBTF (ab182583, 1:1000, abeam), UBTF (HPA006385, 1:1000, Sigma), RBM38 (AV40862, 1:1000, Sigma), or NUDT5 (ab129172, 1:1000, abeam), detected by HRP (horse-radish peroxidase) conjugated donkey anti-rabbit IgG antibody (Pierce) or donkey anti-mouse antibody IgG antibody (Pierce) and visualized with Clarity ECL Western Blotting substrate (BioRad), according to provided protocol.

Another data set has as its system WT HAP1 cells. Description: growth of WT HAP1 cells. The data set is classed as cell-based. The conditions noted are these: 72 h. The procedure:
(§1) HAP1 (KBM7-derived, Horizon Discovery, C859), and HAP1 MTHFD1^KO, MTHFD1^K56R, and MTHFD1^K386E cell lines were cultured in Iscove's Modified Dulbecco's Medium (IMDM, Sigma), supplemented with 10% Fetal Bovine Serum (FBS, Sigma) and 1% Penicillin/Streptomycin (P/S, Sigma).
(§2) MTHFD1^KO cells in dialyzed FBS media were treated with a single nucleotide or folic acid metabolite for 72 hours. Cells were then stained with Hoechst, imaged, and counted using an Operetta (Perkin Elmer). For the AMPK activator studies, cells were stained with Hoechst, imaged, and counted using an Opera (Perkin Elmer). Similarly, MTHFD1^K56R cells in dialyzed FBS media were treated with adenosine for 72 hours. Cells were then stained with Hoechst, imaged, and counted using an Operetta (Perkin Elmer).

The subject of another data set is MTHFD1^K56R cells. Description: growth of MTHFD1^K56R cells in adenosine-containing media. The data set is classed as cell-based. The note with it: 72 h. The procedure: as §1, §2
A further data set relates to HAP1 cells. Put plainly: untargeted global proteomics. The data set is classed as cell-based, human. The note with it: 100 nM, 6 and 24 h. The procedure: Proteomics samples were digested with trypsin using STrap columns following the manufacturer's protocol (C02-micro, ProtiFi). For untargeted global proteomics HAP1 cells were treated with DMSO or 100 nM dNUDT5 for 6 h or 24 h. Then, the cell pellets were collected and lysed in 5% SDS containing 1 μL/mL benzonase (E1014, Millipore) and subsequent short sonication to shear genomic DNA (1× 2 s pulse, 20% amplitude, microtip, Sonics Vibra Cell). 50 μg protein from the total cell lysate or 80% of the elution fraction of the chemical pulldown were first reduced by 20 mM dithiothreitol (M02712, Fluorochem), and alkylated by 40 mM iodoacetamide (I1149, Sigma). Phosphoric acid and S-Trap protein binding buffer were added into the sample lysates. Then, the SDS lysate/S-Trap buffer were loaded into a S-Trap column (C02-micro-80, ProtiFi). 1 μg of trypsin (V5111, Promega) was used to digest each sample at 37° C. for 20 h. The samples were then eluted and dried by vacuum centrifugation. […]
Raw data were searched against the human database (UP000005640, downloaded 08/21) using DIA-NN (Demichev et al. 2020 Nature Methods) by enabling FASTA digest for library free search and Deep learning-based spectra, RTs and IMs prediction. […] The protein groups matrix was further analysed using Perseus (1.6.2.1) or R studio (4.1.1). […] Proteins were removed if detected less than 2 times in each group. […]

A further data set addresses T1, luciferase-tagged NUDT5 (Homo sapiens, UniProt Q9UKK9).
T1 construct: expressed in transfected cells; host or cells: HEK293T
Description: NanoBRET target engagement assay. It is filed as cell-based. The note with it: live cells, 2 h. The procedure:
For NanoBRET target engagement assay, intracellular TE Nano-Glo substrate/inhibitor (N2161, Promega) was used according to the manufacturer's instruction. In brief, 200,000 HEK293T cells/ml was seeded in a T-75 flask. N-terminal NanoLuciferse NUDT5 was reverse transfected into the cells using Fugene HD transfection reagent (E2312, Promega). After 24 h the transfected HEK293 (200,000 cells/ml) were replated onto a 384-well plate containing compounds. 2.5 nM NU008116a was used as the final tracer concentration. After 2 h, NanoLuc substrate and inhibitor was added into each well and the signals were measured by PHERAstar Microplate Reader.
Compounds were dispensed in the 384-well plates by using Echo Acoustic Dispenser.

Data set [1] relates to patient-derived fibroblast lines with MTHFD1 mutations. Put plainly: adenosine toxicity in fibroblasts from MTHFD1 deficiency patients. The note with it: patient-derived cells. The data set is classed as cell-based. The procedure:
Patient-derived fibroblast and control fibroblast lines were cultured in Minimum Essential Medium alpha media (MEMα, no nucleosides, Gibco), supplemented with 10% FBS and 1% P/S. These patient-derived fibroblast lines were previously characterized in Burda et al. 2015. For the experiments using dialyzed FBS, the dialyzed FBS was purchased from Gibco and added to IMDM at a final concentration of 10%. All the cell lines were incubated in 5% CO2 atmosphere at 37° C.

Consider `Cn1c(=O)c2c(nc(N3CCN(C(=O)N4CCC(CN5CCN(c6ccc7c(c6)C(=O)N(C6CCC(=O)NC6=O)C7=O)CC5)CC4)CC3)n2Cc2nnc(-c3ccc(Cl)c(Cl)c3)o2)n(C)c1=O` (stereo not drawn) [dNUDT5, 7-((5-(3,4-dichlorophenyl)-1,3,4-oxadiazol-2-yl)methyl)-8-(4-(4-((4-(2-(2,6-dioxopiperidin-3-yl)-1,3-dioxoisoindolin-5-yl)piperazin-1-yl)methyl)piperidine-1-carbonyl)piperazin-l-yl)-1,3-dimethyl-3,7-dihydro-1H-purine-2,6-dione], for which, at NUDT5 (100 nM, 20 h), the “NUDT5 degradation at 100 nM, 20 h (%)” value is recorded as 96%. Also, the “concentration beyond which degradation efficiency declines (hook effect)” value at NUDT5 (HEK293 and HAP-1 cells) is more than 300 nM. The same compound yielded a DC50 on NUDT5 (HEK293 cells) of 500 pM. For the same compound, the “dependence of NUDT5 degradation (rescue experiments)” value at NUDT5 (competition with TH5427, MLN4924, MG132, HEK293 cells) is “E3 ligase- and proteasome-dependent”. For the same compound, the “effect on viability of WT cells” value with WT HAP1 cells is recorded as “did not affect the viability of WT cells”. The “concentration of maximum rescue of cell viability” value in the data set on MTHFD1^K56R cells (adenosine supplementation) is 100 nM. Also, the “effect on adenosine toxicity / viability” value in the data set on MTHFD1^K56R cells (adenosine-containing media) is “prevented adenosine toxicity”. Further, the “proteome-wide specificity of degradation” value in the data set on HAP1 cells is on record as “highly specific for NUDT5 with no other protein being degraded”. Besides, the “NUDT5 engagement / recruitment” value on luciferase-tagged NUDT5 was “engaged their cognate target NUDT5 in live cells”. Further, in data set [1], the “effect on adenosine-mediated toxicity” value is on record as “reverses adenosine-mediated toxicity”.
